Among the data in PubChem BioAssay AID330 (DTP/NCI, 2004) are T/C values, retold here.

The experiment concerns P388 leukemia ip, CD2F1 mice, survival T/C. Kind of experiment: NCI In Vivo Anticancer Drug Screen. Data for tumor model P388 Leukemia (intraperitoneal) in CD2F1 (CDF1) mice. The settings on record: endpoint: median survival time, higher = longer survival. In a few lines: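 Mice carrying the transplanted tumor received test compound or vehicle. Survival was recorded in each group, and the value is the treated-group measurement divided by that of the vehicle-treated control group.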

The mark [1] stands for this setting: dose: 60.0 mg/kg/injection, schedule: Q01DX005 (ip), vehicle: saline with Tween-80.
[2] abbreviates: dose: 120.0 mg/kg/injection, schedule: Q01DX005 (ip), vehicle: saline with Tween-80.
Setting [3] is: dose: 240.0 mg/kg/injection, schedule: Q01DX005 (ip), vehicle: saline with Tween-80.
Where [4] appears, read: dose: 50.0 mg/kg/injection, schedule: Q01DX009 (ip), vehicle: Klucel (hydroxypropylcellulose) (HPC).
Setting [5] is: dose: 100.0 mg/kg/injection, schedule: Q01DX009 (ip), vehicle: Klucel (hydroxypropylcellulose) (HPC).
[6] abbreviates: dose: 50.0 mg/kg/injection, schedule: Q01DX005 (ip), vehicle: Klucel (hydroxypropylcellulose) (HPC).
The mark [7] stands for this setting: dose: 100.0 mg/kg/injection, schedule: Q01DX005 (ip), vehicle: Klucel (hydroxypropylcellulose) (HPC).
The mark [8] stands for this setting: dose: 50.0 mg/kg/injection, schedule: Q01DX009 (ip), vehicle: saline with Tween-80.
Setting [9] is: dose: 100.0 mg/kg/injection, schedule: Q01DX009 (ip), vehicle: saline with Tween-80.
Where [10] appears, read: dose: 200.0 mg/kg/injection, schedule: Q01DX009 (ip), vehicle: saline with Tween-80.
Where [11] appears, read: dose: 50.0 mg/kg/injection, schedule: Q01DX005 (ip), vehicle: saline with Tween-80.
Where [12] appears, read: dose: 100.0 mg/kg/injection, schedule: Q01DX005 (ip), vehicle: saline with Tween-80.
The mark [13] stands for this setting: dose: 200.0 mg/kg/injection, schedule: Q01DX005 (ip), vehicle: saline with Tween-80.
[14] abbreviates: dose: 200.0 mg/kg/injection, schedule: Q01DX009 (ip), vehicle: Klucel (hydroxypropylcellulose) (HPC).
Setting [15] is: dose: 100.0 mg/kg/injection, schedule: Q01DX001 (ip), vehicle: saline.
Setting [16] is: dose: 200.0 mg/kg/injection, schedule: Q01DX001 (ip), vehicle: saline.
Setting [17] is: dose: 400.0 mg/kg/injection, schedule: Q01DX001 (ip), vehicle: saline.

Values joined by “and” are separate entries in the source; they are usually repeats but may differ in a detail not shown here. Equal entries are not always repeated. Toxic doses and inconclusive results are not listed.

With `CC(O)(CC(=O)O)CC(=O)O`, the T/C is, setting by setting: (dose: 25.0 mg/kg/injection, schedule: Q01DX005 (ip), vehicle: water) 101 % of control; (dose: 50.0 mg/kg/injection, schedule: Q01DX005 (ip), vehicle: water) 100 % of control; (dose: 100.0 mg/kg/injection, schedule: Q01DX005 (ip), vehicle: water) 95 % of control; (dose: 200.0 mg/kg/injection, schedule: Q01DX005 (ip), vehicle: water) 90 % of control; (dose: 400.0 mg/kg/injection, schedule: Q01DX005 (ip), vehicle: water) 92 % of control.
As for `CC(=O)ON(C(=O)c1ccccc1)c1ccccc1`, the T/C runs as follows: under setting [1], 104 % of control; under setting [2], 102 % of control; under setting [3], 99 % of control.
For `COc1ccc(Cc2ccccc2CO)c2ccccc12`, the T/C runs as follows: (dose: 100.0 mg/kg/injection, schedule: Q01DX001 (ip), vehicle: Klucel (hydroxypropylcellulose) (HPC)) 100 % of control; (dose: 200.0 mg/kg/injection, schedule: Q01DX001 (ip), vehicle: Klucel (hydroxypropylcellulose) (HPC)) 100 % of control; (dose: 400.0 mg/kg/injection, schedule: Q01DX001 (ip), vehicle: Klucel (hydroxypropylcellulose) (HPC)) 100 % of control.
`C/C=C(\C)C(=O)OC1CC(OC(=O)/C(C)=C/C)C2(C)C3C(=O)C=C(C)C2C3C1(C)C` (stereo not given): the T/C (dose: 12.5 mg/kg/injection, schedule: Q01DX009 (ip), vehicle: Klucel (hydroxypropylcellulose) (HPC)) was 90 % of control; the T/C (dose: 25.0 mg/kg/injection, schedule: Q01DX009 (ip), vehicle: Klucel (hydroxypropylcellulose) (HPC)) was 96 % of control; the T/C under setting [4] is 96 % of control; the T/C under setting [5] is 100 % of control.
With `Cc1cc2ccccc2c[n+]1[O-]`, the T/C reads like this: under setting [6], 97 % of control; under setting [7], 112 % of control.
On to `CC(CC(=O)c1ccccc1)=NCCCN=C(C)CC(=O)c1ccccc1`, for which the T/C under setting [8] was 112 % of control, the T/C under setting [9] is 96 % of control and the T/C under setting [10] was 96 % of control.
As to `COc1ccc(C2C(C(=O)OCc3ccccc3)=C(C)NC(C)=C2C(=O)OCc2ccccc2)cc1`, the T/C (dose: 0.78 mg/kg/injection, schedule: Q01DX009 (ip), vehicle: distilled water + Tween-80) is 98 % of control; the T/C (dose: 1.56 mg/kg/injection, schedule: Q01DX009 (ip), vehicle: distilled water + Tween-80) was 93 % of control; the T/C (dose: 3.13 mg/kg/injection, schedule: Q01DX009 (ip), vehicle: distilled water + Tween-80) is 88 % of control and 93 % of control; the T/C (dose: 6.25 mg/kg/injection, schedule: Q01DX009 (ip), vehicle: distilled water + Tween-80) is 92 % of control; the T/C (dose: 12.5 mg/kg/injection, schedule: Q01DX009 (ip), vehicle: distilled water + Tween-80) is 87 % of control and 92 % of control; the T/C (dose: 25.0 mg/kg/injection, schedule: Q01DX009 (ip), vehicle: distilled water + Tween-80) was 95 % of control.
For the compound `COc1ccc(NC(=O)C2C(=O)N(c3ccc(OC)cc3)C(=O)/C2=N/N=C(N)N)cc1` (stereo not given), the T/C runs as follows: (dose: 25.0 mg/kg/injection, schedule: Q04DX002 (ip), vehicle: saline with Tween-80) 99 % of control; (dose: 50.0 mg/kg/injection, schedule: Q04DX002 (ip), vehicle: saline with Tween-80) 101 % of control; (dose: 100.0 mg/kg/injection, schedule: Q04DX002 (ip), vehicle: saline with Tween-80) 98 % of control and 101 % of control.
As for `COc1ncnc2c1ncn2C1CCCCO1` (stereo not given), the T/C is 97 % of control under setting [11], 101 % of control under setting [12] and 99 % of control under setting [13].
Consider `S=C(S)NC1CCN(Cc2ccccc2)CC1`, for which the T/C is, setting by setting: under setting [6], 107 % of control; under setting [7], 102 % of control; (dose: 200.0 mg/kg/injection, schedule: Q01DX005 (ip), vehicle: Klucel (hydroxypropylcellulose) (HPC)) 96 % of control.
On to `C[C@]12CCC(=O)C=C1CC[C@@H]1[C@@H]2[C@@H](O)C[C@@]2(C)[C@H]1CC[C@]2(O)C(=O)COC(=O)c1ccc([N+](=O)[O-])cc1Cl`, for which the T/C runs as follows: under setting [8], 109 % of control; under setting [9], 100 % of control; under setting [10], 109 % of control and 86 % of control; (dose: 400.0 mg/kg/injection, schedule: Q01DX009 (ip), vehicle: saline with Tween-80) 86 % of control.
As for `COc1ccc(-c2coc3cc(O)cc(O)c3c2=O)cc1`, the T/C is 94 % of control (dose: 25.0 mg/kg/injection, schedule: Q01DX009 (ip), vehicle: saline with Tween-80); 110 % of control under setting [4]; 97 % of control under setting [8]; 107 % of control under setting [5]; 93 % of control under setting [9]; 104 % of control under setting [14]. The T/C (dose: 400.0 mg/kg/injection, schedule: Q01DX009 (ip), vehicle: Klucel (hydroxypropylcellulose) (HPC)) was 96 % of control.
With `COC(=O)C(C)c1[nH]c2ccccc2c1[Se]c1ccccc1` (stereo not given), the T/C is, setting by setting: (dose: 100.0 mg/kg/injection, schedule: Q01DX001 (ip), vehicle: saline with Tween-80) 102 % of control; (dose: 200.0 mg/kg/injection, schedule: Q01DX001 (ip), vehicle: saline with Tween-80) 106 % of control; (dose: 400.0 mg/kg/injection, schedule: Q01DX001 (ip), vehicle: saline with Tween-80) 94 % of control.
Consider `CCOC(=O)c1cc2c(oc1=O)-c1cc(C)ccc1OC2C` (stereo not given), for which the T/C is 104 % of control under setting [1], 110 % of control under setting [2] and 105 % of control under setting [3].
`Cc1cc(OC(N)=S)cc(C)c1Cl`: the T/C under setting [4] is 101 % of control, the T/C under setting [5] is 100 % of control and the T/C under setting [14] was 101 % of control.
Turning to `CN(C)C(=O)C1OC1(C)c1ccccc1` (stereo not given), the T/C is 103 % of control (dose: 100.0 mg/kg/injection, schedule: Q04DX003 (ip), vehicle: Klucel (hydroxypropylcellulose) (HPC)); 108 % of control (dose: 200.0 mg/kg/injection, schedule: Q04DX003 (ip), vehicle: Klucel (hydroxypropylcellulose) (HPC)); 117 % of control (dose: 400.0 mg/kg/injection, schedule: Q04DX003 (ip), vehicle: Klucel (hydroxypropylcellulose) (HPC)).
In the case of `COC(=O)c1ncn(CCCO)c1O`, the T/C is, setting by setting: under setting [15], 92 % of control; under setting [16], 100 % of control; under setting [17], 104 % of control.
Take `CCC12C(=O)C(CC)(C(c3ccccc3)=C1c1ccccc1)C1OC(=O)OC12` (stereo not given): the T/C runs as follows: under setting [8], 97 % of control; under setting [9], 91 % of control; under setting [10], 86 % of control.
For `O=C(N/N=C/c1ccc(Cl)cc1)c1cc2ccccc2oc1=O`, the T/C by setting is: under setting [15], 100 % of control; under setting [16], 103 % of control; under setting [17], 105 % of control.
As for `COC1=C(C)C(=O)C2=C(C1=O)C1C3CC4=C(C(=O)C(OC)=C(C)C4=O)C(CNC(=O)C(C)=O)N3C(C#N)C(C2)N1C` (stereo not given), the T/C by setting is: (dose: 0.06 mg/kg/injection, schedule: Q01DX009 (ip), vehicle: Klucel (hydroxypropylcellulose) (HPC)) 122 % of control; (dose: 0.31 mg/kg/injection, schedule: Q01DX009 (sc), vehicle: Klucel (hydroxypropylcellulose) (HPC)) 107 % of control; (dose: 0.62 mg/kg/injection, schedule: Q01DX009 (ip), vehicle: Klucel (hydroxypropylcellulose) (HPC)) 160 % of control; (dose: 0.62 mg/kg/injection, schedule: Q01DX009 (sc), vehicle: Klucel (hydroxypropylcellulose) (HPC)) 115 % of control; (dose: 1.0 mg/kg/injection, schedule: Q01DX009 (ip), vehicle: saline) 156 % of control; (dose: 1.25 mg/kg/injection, schedule: Q01DX009 (ip), vehicle: Klucel (hydroxypropylcellulose) (HPC)) 107 % of control. For the same compound, the T/C was 118 % of control (dose: 1.25 mg/kg/injection, schedule: Q01DX009 (sc), vehicle: Klucel (hydroxypropylcellulose) (HPC)) and 87 % of control (dose: 2.0 mg/kg/injection, schedule: Q01DX009 (ip), vehicle: saline).
For the compound `CCC(C1SC(=S)NC1=O)C1SC(=S)NC1=O` (stereo not given), the T/C runs as follows: under setting [11], 92 % of control; under setting [12], 97 % of control.
In the case of `CCn1c2ccccc2c2cc(NC(=O)N3CCCCC3)ccc21`, the T/C under setting [11] was 95 % of control, the T/C under setting [12] was 95 % of control and the T/C under setting [13] was 90 % of control.
